Measurements taken from patent EP2632470B1 (priority 2010, dated 2012).
Counter-ions that a name gives are not always drawn. Like-named read-outs stand apart in the source and are kept apart here.

Experiments:
[1] = system: M. furfur 7982; test: Fractional Inhibitor Concentration (FIC) test of chelator combined with ZPT; format: cell-based; conditions: combination with ZPT (from 12.5ppm); chelator from 400ppm or 800ppm; 33°C, 2 days; average of duplicate plates
Source text: Fractional Inhibitor Concentration (FIC) is a conventional methodology for evaluating antimicrobial interactions. In an embodiment of the present invention, an FIC is used to determine combinatorial effects of two chemicals on anti-Malassezia activity in a tissue culture setting.
• 1. Each FIC assay is run in duplicate. • 2. Low levels of M. furfur 7982 cells are inoculated into each well of a 96 well plate. • 3. Chemical #1 (in our assays, this is always ZPT) is titrated (2x concentration reductions) from right to left across each row of the plate, starting at 12.5ppm final concentration and ending at 0ppm. • 4. […] Plates are incubated at 33°C, 60%RH for 2 days with agitation. • 6. Optical densities (OD's) are then determined using a spectrophotometer.
1. […]. The lowest concentration value of chemical #1, both by itself and with the lowest concentration of chemical #1 which boosts chemical #2's potency, that inhibit growth are determined (see Appendix 1). 4. Likewise, the lowest concentration of chemical #2, both by itself and with the lowest concentration of chemical #2 that boosts chemical #1's potency, that inhibit growth are determined (see Appendix 1). 5. The FIC value for the duplicate plates is determined using the calculations below: FIC = (lowest inhibitory dose of Chemical#1 by itself)/(inhibitory dose of Chemical#1 in a well that also contains Chemical#2also contains Chemical#1) + (lowest inhibitory dose of Chemical#2by itselflowest)/(lowest inhibitory dose of Chemical#2in a well that) [formula] ave FIC VALUE = (FIC value for plate 1+FIC value for plate2); 2 [formula] 6. The average FIC value is then determined, and the combinatorial effect of the two chemicals is classified according to the chart below: […]

[2] = system: Malassezia furfur; test: Intrinsic anti-Malassezia potency, growth inhibition by optical density; format: cell-based
Description: To measure the growth inhibition properties of test materials against Malassezia, we carried out the following protocol.
Starting cultures are prepared by incubating with shaking at 31°. Cells (5 ml of culture) are collected by centrifugation and suspended in 50 ml fresh mDixon medium. […] The plates are shaken vigorously on a Heidolph Titramax 100 overnight at 31°. To increase the humidity, water-soaked cotton batting is placed over the plates.
As a control, the optical density of untreated M. furfur is measured after overnight incubation. As another control, the optical density of the starting culture is measured. The difference between these optical densities represents the amount of growth of M. furfur.

[3] = Malassezia furfur, read-out: Intrinsic Anti-Malassezia Potency (IC50, µM)
[4] = Malassezia furfur, mDixon medium, overnight at 31°, optical density 600 nm, read-out: Intrinsic Anti-Malassezia Potency (IC50)

“1,2-Dimethyl-3-hydroxy-4-pyridone, Zinc salt” showed an FIC [1] of 0.5.
Work on `O=C(O)CN(CC(=O)O)[C@@H]1CCCC[C@H]1N(CC(=O)O)CC(=O)O` (relative stereo) [trans-1,2-Cyclohexylenedinitrilotetraacetic acid] yielded an IC50 [2, 3] of 500 µM.
`C1CNCCNCCNCCNCCNCCN1` [1,4,7,10,13,16-Hexaazacyclooctadecane] gave an IC50 [2, 4] greater than 500 µM.
`O=C(O)CN1CCCN(CC(=O)O)CCN(CC(=O)O)CCCN(CC(=O)O)CC1` [1,4,8,11-Tetraazacyclotetradecane-N,N',N",N'''-tetraacetic acid] showed an IC50 [2, 4] greater than 500 µM.
For `S=C(N=Nc1ccccc1)NNc1ccccc1` [1,5-Diphenyl-1,2,4,5-tetraazapent-1-en-3-thione], the IC50 [2, 4] was 62.5 µM.
Compound `c1cnc2c(c1)ccc1cccnc12` [1,10-Phenanthroline] has an IC50 [2, 4] of 166 µM.
`Oc1ccc2ccccc2c1N=Nc1nccs1` [1-(2-Thiazoylazo)-2-naphthol] showed an IC50 [2, 4] of 250 µM.
Compound `CC(C)c1cccc(O)c(=O)c1` [1-Hydroxy-4-(1-methylethyl)cyclohepta-3,5,7-trien-2-one] has an IC50 [2, 3] of 65 µM.
`c1ccc(-c2cccc(-c3ccccn3)n2)nc1` [2,2':6',2"-terpyridine] showed an IC50 [2, 4] of 86 µM.
`Cc1ccc2ccc3ccc(C)nc3c2n1` [2,9-dimethyl-1,10-phenanthroline] was tested, and the IC50 [2, 4] was greater than 480 µM.
`NCCc1ccccn1` [2-(2-aminoethyl)-pyridine] was tested, and the IC50 [2, 4] was greater than 500 µM.
`Cc1c(O)c(=O)ccn1C` [3-Hydroxy-1,2-dimethyl-4(1H)-pyridone] gave an IC50 [2, 4] of 719 µM.
For `Oc1ccc(N=Nc2nccs2)c(O)c1` [4-(2-thiazolylazo)-resorcinol], the IC50 [2, 4] was greater than 900 µM.
With `Oc1c(Cl)cc(Cl)c2cccnc12` [5,7-dichloro-8-hydroxyquinoline] the IC50 [2, 4] was 23.4 µM.
`Oc1c(I)cc(Cl)c2cccnc12` [5-Chloro-8-hydroxy-7-iodoquinoline] showed an IC50 [2, 4] of 65.5 µM.
`Oc1cccc2cccnc12` [8-hydroxyquinoline] showed an IC50 [2, 4] of 138 µM.
With `O=C(O)CN(CCN(CC(=O)O)CC(=O)O)CC(=O)O` [Ethylenediaminetetraacetic acid (EDTA), Ethylenediaminetetraacetic acid] the IC50 [2, 3] was greater than 500 µM and the “anti-fungal effectiveness (in words)” value ([2]; comment on Table 1 data) was “not to be effective”.
`CCC(NCCNC(CC)C(=O)O)C(=O)O` (stereo not shown) [Ethylenediiminodi-2-butanoic acid] showed an IC50 [2, 3] greater than 500 µM.
`CCCCCCCCOc1cccc(=O)n1O` [HP-101, N-Hydroxy-6-octyloxypyridine-2(1H)one, ethanolamine salt] gave an IC50 [2, 4] of 54.6 µM and an FIC [1] of 0.62.
Work on `N[C@@H](COP(=O)(O)O)C(=O)O` [L-2-Amino-3-phosphopropanoic acid] yielded an IC50 [2, 3] greater than 500 µM.
In the case of `c1ccc(CN(CCN(Cc2ccccn2)Cc2ccccn2)Cc2ccccn2)nc1` [N,N,N',N-tetrakis(2-pyridylmethyl) ethylenediamine], the IC50 [2, 4] is reported as 71 µM.
Work on `O=C(O)CN(CCO)CCO` [N,N-Bis(2-hydroxyethyl)glycine (Bicine), N,N-Bis(2-hydroxyethyl)glycine] yielded an IC50 [2, 4] greater than 500 µM.
`O=C1c2cccc3cccc(c23)C(=O)N1O` [N,N-Naphthaloylhydroxylamine] gave an FIC [1] of 0.8.
With `Cc1occc(=S)c1O` [Thiomaltol] the FIC [1] was 0.8.
Work on `NCCC(=O)N[C@@H](Cc1c[nH]cn1)C(=O)O` [beta-Alanyl-L-histidine (L-Carnosine), beta-Alanyl-L-histidine] yielded an IC50 [2, 4] greater than 500 µM.
For `O=c1cc(CO)occ1O` [kojic acid], the IC50 [2, 4] was 704 µM.
For `Cc1occc(=O)c1O` [maltol], the IC50 [2, 4] was 793 µM.
Compound Benzohydroxamic acid, Zinc Salt has an FIC [1] of 0.3.
With Maltol, Zinc salt the FIC [1] was 0.1.
“N-Hydroxy-6-octyloxypyridine-2(1H)one, zinc salt [HP-100 Zn]” gave an FIC [1] of 0.7.
Compound Thiomaltol, Zinc salt has an FIC [1] of 0.5.
With “zinc salt of 1-hydroxy-2-pyridinethione [Zinc Pyrithione]” the IC50 ([2]; mDixon medium, overnight at 31°, optical density 600 nm, read-out: Intrinsic Anti-Malassezia Potency (IC50)) was 15 µM.
